From patent US12459910B2, “Mitochondrial therapeutic agents” (ARIZONA BOARD OF REGENTS ON BEHALF OF ARIZONA STATE …, priority 2021, dated 2025) come the findings set out here.

Molecules are shown by their SMILES.

Experiment [1] concerns FRDA fibroblasts. Kind of experiment: Erastin cell survival assay (cellular ATP, ViaLight Plus). Format: cell-based. Particulars: FRDA fibroblasts (GM04078); compounds 12 h before 4 μM erastin; viability by ATP 48 h after erastin; read-out: Erastin challenge cell survival EC50. The source says: (§1) All compounds evaluated for their biological effects were >95% pure. Chemicals employed for the bioassays, including ferrostatin-1 (Fer-1), liproxstatin-1 (Lip-1), RSL3 ((1S,3R)-RSL3), erastin, α-tocopherol, carbonyl cyanide 4-(trifluoromethoxy) phenylhydrazone (FCCP) and galactose, were purchased from Sigma Aldrich. Fluorescent probes, including C11-BODIPY581/591(4,4-difluoro-5-(4-phenyl-1,3-butadienyl)-4-bora-3a,4a-diaza-s-indacene-3-propionic acid), and The Live/Dead® Viability/Cytotoxicity Kit were obtained from Invitrogen (Thermo Fisher Scientific). Luciferase-linked ATPase enzymatic assay (ViaLight Plus proliferation/cytoxicity kit was purchased from Lonza (Walkersville, MD). FRDA lymphocytes (catalogue number GM15850) and FRDA fibroblasts cells (catalogue number GM04078) were obtained from Coriell Cell Repositories (Camden, NJ, USA).
(§2) Lymphocytes were cultured in RPMI-1640 medium (Gibco, Life Technologies, Grand Island, NY) with 15% fetal calf serum, 2 mM glutamine (HyClone, South Logan, UT) and 1% penicillin-streptomycin antibiotic supplement (Cellgro, Manassas, VA). Cells were passaged daily to maintain them in log phase growth and kept at a nominal concentration of 5-10×105 mL. FRDA fibroblasts were cultured in 64% (v/v) Eagle's minimal essential medium (MEM), lacking phenol red with Eagle's balanced salt (EBS) and 25% M199 with EBS (Gibco) supplemented with 10% (v/v) fetal bovine serum albumin (HyClone), 1% penicillin-streptomycin antibiotic mix, 10 μg/mL insulin (Gibco), 10 ng/mL […] (EGF), 10 ng/mL basic fibroblast growth factor (Gibco) and 2 mM glutamine. Cells were grown in 75 cm2 culture flasks and incubated at 37° C. in a humidified atmosphere of 5% CO2 in air. Cells were fed twice weekly and split every third day at a ratio of 1:3. All experiments were conducted with FRDA cells from passages 8-14.
The ability of the test compounds to confer cytoprotection to ferroptosis inducer erastin in FRDA fibroblasts was determined by assessing the depletion of cellular ATP using a commercially available luciferase-linked ATPase enzymatic assay (ViaLight® Plus proliferation/cytotoxicity Kit (Lonza, Walkersville, MD) according to the directions of the manufacturer. Briefly, FRDA fibroblasts (GM04078) were plated in 96-well microtiter plates at a density of 3000 cell/well (50 μL) (Costar, Corning, NY). The plates were incubated at 37° C. for 24 h in an atmosphere having 95% humidity and 5% CO2 to allow attachment of the cells to the culture plates and to allow the cell density reach 60-70% confluency. The next day the test compounds were dissolved in DMSO, diluted to the appropriate concentrations in fresh cell culture media and the cells were then treated with the test compounds (final DMSO concentration was <0.5%). […] Cell viability in each well was determined 48 h after erastin addition by measuring the intracellular ATP content using the ViaLight®-Plus ATP monitoring reagent kit (Lonza, Walkersville, MD) according to the manufacturer's protocol. The ATP concentration was determined by reading luminescence using a luminator (Clarity™ luminescence microplate reader). The percent of viable cells relative to non-treated control was determined for each well. […] Final data output was a calculated EC50 value determined graphically from the dose-response curves using the nonlinear regression curve fit analysis model.

Experiment [2] relates to FRDA lymphocytes. Kind of experiment: RSL3 challenge lipid peroxidation assay (C11-BODIPY581/591, FACS). The settings on record: Homo sapiens; FRDA lymphocytes (GM15850); compounds overnight, then 2 μM RSL3; C11-BODIPY581/591 flow cytometry; read-out: RSL3 challenge lipid peroxidation inhibition EC50. Format: cell-based.
Source text: as §1, §2
Lipid peroxidation in live cells can be visualized using the oxidation-sensitive fluorescent probe C11-BODIPY581/591. Upon oxidation of this probe, the fluorescence properties shift from a red-emitting form (595 nm) to a green emitting form (520 nm). Changes in fluorescence indirectly reflect the oxidation of unsaturated fatty acids. A quantitative analysis of lipid peroxidation in FRDA lymphocytes, challenged with 2 μM RSL3 in the presence or absence of the test compounds for 2 h was obtained by FACS analysis using the specific dye C11-BODIPY581/591. Briefly, FRDA lymphocytes (5×10^5 cell/mL) were treated with the test compounds (dissolved in DMSO and added to the assay medium at final DMSO concentrations <0.5%) at varying concentrations and incubated at 37° C. overnight in a humidified atmosphere containing 5% CO2 in air. Cells were treated with 2 μM of RSL3 and then incubated for 90 minutes in a humidified atmosphere containing 5% CO2 in air at 37° C. Cells were treated with 2 μM of C11-BODIPY581/591 in phenol red-free RPMI-1640 media and incubated at 37° C. in the dark for 30 min. […] Cells were resuspended in 300 μL of PBS and were analyzed immediately by flow cytometry (C6 Accuri, BD Biosciences, San Jose, CA), to monitor the change in intensity of the C11-BODIPY581/591-green (oxidized) fluorescence signal using 488 nm excitation laser and FL1-H channel 538 nm emission filter. In each analysis, 10,000 events were recorded. […] Final data output was a calculated EC50 value determined graphically from the dose-response curves using the nonlinear regression curve fit analysis model.
For orientation: A flow cytometer gives signals particle by particle.

Turning to `CCCCCCCCCCCCc1cc2nc3ccc(=O)cc-3sc2cc1N(C)C` [Example 4, 7-(Dimethylamino)-8-dodecyl-3H-phenothiazin-3-one], the figures for the EC50 in experiment [1] and in experiment [2] were 0.015 ± 0.001 µM and 0.016 ± 0.001 µM, respectively.

With `CCCCCCCCc1cc2nc3ccc(=O)cc-3sc2cc1N(C)C` [Example 2, 7-(Dimethylamino)-8-octyl-3H-phenothiazin-3-one], the figures for the EC50 in experiment [1] and in experiment [2] were 0.015 ± 0.003 µM and 0.014 ± 0.001 µM, respectively.

In the case of `CCCCCCCCCCc1cc2nc3ccc(=O)cc-3sc2cc1N(C)C` [Example 1, 8-Decyl-7-(dimethylamino)-3H-phenothiazin-3-One], the EC50 – broadly, the concentration that produces a half-maximal response – came to 0.01 ± 0.001 µM in experiment [1] and 0.009 ± 0.001 µM in experiment [2].

For the compound `CCCCCCCCCCCCCCCCc1cc2nc3ccc(=O)cc-3sc2cc1N(C)C` [Example 5, 7-(Dimethylamino)-8-hexadecyl-3H-phenothiazin-3-one], the figures for the EC50 in experiment [1] and in experiment [2] were 0.022 ± 0.002 µM and 0.025 ± 0.003 µM, respectively.

As to `CCCCCCCCCc1cc2nc3ccc(=O)cc-3sc2cc1N(C)C` [Example 3, 7-(Dimethylamino)-8-nonyl-3H-phenothiazin-3-one], the EC50 in experiment [1] stood at 0.011 ± 0.001 µM; in experiment [2] it was 0.012 ± 0.001 µM.
